# Paper PMC10485003, “Antibiotic hyper-resistance in a class I aminoacyl-tRNA synthetase with altered active site signature motif” (Nature Communications, 2023)
# Where “and” joins values, the source holds several entries; their conditions need not be identical. Equal entries are not always repeated.
# How the values were obtained:
# [1] = target: T1, wt-ALHH DrIleRS2 (Deinococcus radiodurans, UniProt Q9RUP8); experiment: ATP-PPi exchange assay, mupirocin inhibition of amino acid activation; type: biochemical; conditions: mupirocin inhibition towards Ile; GraphPad Prism output, Repl1-Repl3; read-out: KI, single replicates
# T1 construct: hexa-histidine tag (pET28b(+)) (N); made in house; host or cells: E. coli BL21(DE3)
# Procedure: (§1) L-Ile and ATP concentrations ranged from 1/10 KM to 10 KM values. When measuring the KI towards one of the substrates, the other was held in saturation (concentrations at least 10 KM). The aliquots of the reaction mixture (1–2.5 μl) were quenched in 2 volumes of 500 mM NaOAc pH = 4.5, 0.1% SDS, and formed ^32P-ATP was separated from the remaining ^32P-PPi by thin-layer chromatography on Polygram CEL 300 PEI UV254 TLC plates (Macherey-Nagel, cat: 801063) using 750 mM KH2PO4 pH=3.5, 4 M urea buffer. Visualization and quantification of the signals was performed using a Typhoon Phosphoimager 5 (General Electric) and accompanying ImageQuant™ TL software (SV: 10.2). The kinetic constants were determined using a global fit option of the competitive inhibition model of GraphPad Prism 6 software (SV: 6.01). All experiments were performed in triplicates. The kcat was determined by dividing the maximal velocity, VM, with the used enzyme concentration. […]
# (§2) variable substrate (ATP or Ile) was varied in the range of 0.1 KM to 10 KM. The other substrate (Ile or ATP) was kept in excess at 5 to 10 KM. Data were globally fitted to the competitive inhibition model using GraphPad prism 6.01 for Windows software. The values represent the average value ± SD of three independent experiments. Source data are provided as a Source Data file.
# [2] = target: T2, wt-HVGH TtIleRS2 (Thermus thermophilus, UniProt P56690); experiment: as above; type: biochemical
# T2 construct: hexa-histidine tag (pET28b(+)) (N); made in house; host or cells: E. coli Rosetta2 (DE3)
# T2 sequence (P56690 1-1043): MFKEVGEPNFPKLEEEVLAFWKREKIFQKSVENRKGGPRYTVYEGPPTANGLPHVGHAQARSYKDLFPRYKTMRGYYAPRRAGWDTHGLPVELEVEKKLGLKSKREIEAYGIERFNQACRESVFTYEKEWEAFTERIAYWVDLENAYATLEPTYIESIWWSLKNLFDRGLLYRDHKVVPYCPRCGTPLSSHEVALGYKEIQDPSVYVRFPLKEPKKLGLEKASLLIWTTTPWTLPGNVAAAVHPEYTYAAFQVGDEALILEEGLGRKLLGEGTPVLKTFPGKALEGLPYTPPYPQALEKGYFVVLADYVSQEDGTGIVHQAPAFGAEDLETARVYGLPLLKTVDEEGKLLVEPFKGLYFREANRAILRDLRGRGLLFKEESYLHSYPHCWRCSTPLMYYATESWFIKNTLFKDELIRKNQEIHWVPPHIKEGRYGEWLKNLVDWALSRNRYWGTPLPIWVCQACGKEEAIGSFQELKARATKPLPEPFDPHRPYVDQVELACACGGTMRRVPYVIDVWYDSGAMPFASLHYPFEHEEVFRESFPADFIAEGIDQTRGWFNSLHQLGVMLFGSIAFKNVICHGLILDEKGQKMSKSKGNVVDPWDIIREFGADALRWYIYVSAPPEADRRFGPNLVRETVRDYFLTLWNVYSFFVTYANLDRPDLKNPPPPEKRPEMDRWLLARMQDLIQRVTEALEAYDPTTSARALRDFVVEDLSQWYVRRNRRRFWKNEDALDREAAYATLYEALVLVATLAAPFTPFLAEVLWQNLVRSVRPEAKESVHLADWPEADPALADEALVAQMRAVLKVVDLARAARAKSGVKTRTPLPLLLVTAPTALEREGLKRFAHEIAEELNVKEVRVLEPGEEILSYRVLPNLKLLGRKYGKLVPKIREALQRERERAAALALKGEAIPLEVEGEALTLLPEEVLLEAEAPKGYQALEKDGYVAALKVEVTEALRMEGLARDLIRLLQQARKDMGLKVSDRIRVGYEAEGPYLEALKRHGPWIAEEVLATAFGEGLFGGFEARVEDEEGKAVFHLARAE
# Procedure: as §1, §2
# T1 sequence (Q9RUP8 whole entry): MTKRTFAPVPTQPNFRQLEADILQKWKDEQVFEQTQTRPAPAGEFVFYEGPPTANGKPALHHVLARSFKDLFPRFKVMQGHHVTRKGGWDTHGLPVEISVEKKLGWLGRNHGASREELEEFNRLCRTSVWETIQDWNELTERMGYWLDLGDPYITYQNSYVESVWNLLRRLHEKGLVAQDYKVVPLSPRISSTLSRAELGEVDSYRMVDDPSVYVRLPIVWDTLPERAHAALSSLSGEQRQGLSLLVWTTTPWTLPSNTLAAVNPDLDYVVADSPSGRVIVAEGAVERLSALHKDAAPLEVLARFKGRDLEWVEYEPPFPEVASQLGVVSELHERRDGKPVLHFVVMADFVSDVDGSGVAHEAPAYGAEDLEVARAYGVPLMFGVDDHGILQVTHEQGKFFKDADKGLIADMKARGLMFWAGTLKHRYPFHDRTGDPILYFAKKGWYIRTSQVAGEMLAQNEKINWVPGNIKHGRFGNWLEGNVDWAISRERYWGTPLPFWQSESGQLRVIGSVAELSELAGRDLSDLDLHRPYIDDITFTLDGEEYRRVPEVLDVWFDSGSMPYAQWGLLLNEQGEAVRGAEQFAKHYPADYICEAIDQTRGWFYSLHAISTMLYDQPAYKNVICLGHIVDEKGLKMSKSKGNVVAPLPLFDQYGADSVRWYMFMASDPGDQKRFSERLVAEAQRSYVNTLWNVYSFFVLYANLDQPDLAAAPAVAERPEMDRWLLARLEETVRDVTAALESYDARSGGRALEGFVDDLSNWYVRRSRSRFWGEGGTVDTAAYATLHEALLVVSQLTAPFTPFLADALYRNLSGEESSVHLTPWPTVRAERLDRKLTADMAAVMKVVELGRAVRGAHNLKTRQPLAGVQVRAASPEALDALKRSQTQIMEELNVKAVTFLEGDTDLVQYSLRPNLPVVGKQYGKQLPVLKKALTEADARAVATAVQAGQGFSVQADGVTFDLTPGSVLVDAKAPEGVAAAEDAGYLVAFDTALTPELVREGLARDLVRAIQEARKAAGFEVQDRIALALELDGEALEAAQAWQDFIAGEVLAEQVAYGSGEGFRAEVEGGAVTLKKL
smiles,measurement,setting,value
C/C(=C\C(=O)OCCCCCCCCC(=O)O)C[C@@H]1OC[C@H](C[C@@H]2O[C@H]2[C@@H](C)[C@H](C)O)[C@@H](O)[C@H]1O [mupirocin],Ki,[1],7.22 mM and 6.75 mM and 5.95 mM
same,Ki,"[2]; KI (MUP)ATP, amino acid activation assay, ATP as variable substrate, average ± SD of three independent experiments",0.0002 ± 1e-05 mM
same,Ki,"[2]; KI (MUP)Ile, amino acid activation step, ATP/PPi exchange assay, Ile varied, ATP saturating, average ± SD of three independent experiments",0.0002 ± 1e-05 mM
same,Ki,"[2]; KI, single replicates, mupirocin inhibition towards Ile, GraphPad Prism output, Repl1-Repl3",190 nM and 200 nM (3×)
same,initial velocity vo,"[2]; c(mupirocin) 0.25 μM, c(ATP) 0.5 mM",0.00545 mM/min and 0.00625 mM/min and 0.00878 mM/min
same,initial velocity vo,"[2]; c(mupirocin) 0.25 μM, c(ATP) 1.0 mM",0.00989 mM/min and 0.00933 mM/min and 0.0106 mM/min
same,initial velocity vo,"[2]; c(mupirocin) 0.25 μM, c(ATP) 2.5 mM",0.01904 mM/min and 0.0219 mM/min and 0.02129 mM/min
same,initial velocity vo,"[2]; c(mupirocin) 0.25 μM, c(ATP) 5.0 mM",0.03233 mM/min and 0.03269 mM/min and 0.0316 mM/min
same,initial velocity vo,"[2]; c(mupirocin) 0.25 μM, c(ATP) 10.0 mM",0.04434 mM/min and 0.04682 mM/min and 0.04511 mM/min
same,initial velocity vo,"[2]; c(mupirocin) 0.25 μM, c(ATP) 15.0 mM",0.0472 mM/min and 0.05017 mM/min and 0.05086 mM/min
same,initial velocity vo,"[2]; c(mupirocin) 0.25 μM, c(Ile) 5.0 μM",0.00612 mM/min and 0.00672 mM/min and 0.00733 mM/min
same,initial velocity vo,"[2]; c(mupirocin) 0.25 μM, c(Ile) 15.0 μM",0.0169 mM/min and 0.01596 mM/min
same,initial velocity vo,"[2]; c(mupirocin) 0.5 μM, c(ATP) 0.5 mM",0.00322 mM/min and 0.00373 mM/min and 0.00334 mM/min
same,initial velocity vo,"[2]; c(mupirocin) 0.5 μM, c(ATP) 1.0 mM",0.00754 mM/min and 0.00751 mM/min and 0.00747 mM/min
same,initial velocity vo,"[2]; c(mupirocin) 0.5 μM, c(ATP) 2.5 mM",0.01415 mM/min and 0.01653 mM/min and 0.01647 mM/min
same,initial velocity vo,"[2]; c(mupirocin) 0.5 μM, c(ATP) 5.0 mM",0.02341 mM/min and 0.024 mM/min and 0.02727 mM/min
same,initial velocity vo,"[2]; c(mupirocin) 0.5 μM, c(ATP) 10.0 mM",0.03666 mM/min and 0.03855 mM/min and 0.03894 mM/min
same,initial velocity vo,"[2]; c(mupirocin) 0.5 μM, c(ATP) 15.0 mM",0.04188 mM/min and 0.04379 mM/min and 0.0434 mM/min
same,initial velocity vo,"[2]; c(mupirocin) 0.5 μM, c(Ile) 5.0 μM",0.00349 mM/min and 0.00358 mM/min and 0.00422 mM/min
same,initial velocity vo,"[2]; c(mupirocin) 0.5 μM, c(Ile) 15.0 μM",0.01037 mM/min and 0.01135 mM/min and 0.01134 mM/min
same,initial velocity vo,"[2]; c(mupirocin) 1.0 μM, c(ATP) 1.0 mM",0.00403 mM/min and 0.00377 mM/min and 0.00474 mM/min
same,initial velocity vo,"[2]; c(mupirocin) 1.0 μM, c(ATP) 2.5 mM",0.00961 mM/min and 0.01146 mM/min and 0.01193 mM/min
same,initial velocity vo,"[2]; c(mupirocin) 1.0 μM, c(ATP) 5.0 mM",0.01986 mM/min and 0.02034 mM/min and 0.01615 mM/min
same,initial velocity vo,"[2]; c(mupirocin) 1.0 μM, c(ATP) 10.0 mM",0.02901 mM/min and 0.02831 mM/min and 0.02535 mM/min
same,initial velocity vo,"[2]; c(mupirocin) 1.0 μM, c(ATP) 15.0 mM",0.03565 mM/min and 0.03315 mM/min and 0.03301 mM/min
same,initial velocity vo,"[2]; c(mupirocin) 1.0 μM, c(Ile) 5.0 μM",0.0018 mM/min and 0.00161 mM/min and 0.00213 mM/min
same,initial velocity vo,"[2]; c(mupirocin) 1.0 μM, c(Ile) 15.0 μM",0.00627 mM/min and 0.00604 mM/min and 0.00608 mM/min
same,initial velocity vo,"[2]; c(mupirocin) 1.0 μM, c(Ile) 50.0 μM",0.01613 mM/min and 0.01634 mM/min and 0.01627 mM/min
same,initial velocity vo,"[2]; c(mupirocin) 2.5 μM, c(ATP) 2.5 mM",0.00405 mM/min and 0.00296 mM/min and 0.00525 mM/min
same,initial velocity vo,"[2]; c(mupirocin) 2.5 μM, c(ATP) 5.0 mM",0.00797 mM/min and 0.00918 mM/min and 0.01147 mM/min
same,initial velocity vo,"[2]; c(mupirocin) 2.5 μM, c(ATP) 10.0 mM",0.01533 mM/min and 0.01708 mM/min and 0.0168 mM/min
same,initial velocity vo,"[2]; c(mupirocin) 2.5 μM, c(ATP) 15.0 mM",0.02441 mM/min and 0.0241 mM/min and 0.02037 mM/min
same,initial velocity vo,"[2]; c(mupirocin) 5.0 μM, c(ATP) 2.5 mM",0.00309 mM/min and 0.0024 mM/min and 0.0026 mM/min
same,initial velocity vo,"[2]; c(mupirocin) 5.0 μM, c(ATP) 5.0 mM",0.00527 mM/min and 0.00709 mM/min and 0.00659 mM/min
same,initial velocity vo,"[2]; c(mupirocin) 5.0 μM, c(ATP) 10.0 mM",0.01002 mM/min and 0.00944 mM/min and 0.01333 mM/min
same,initial velocity vo,"[2]; c(mupirocin) 5.0 μM, c(ATP) 15.0 mM",0.01409 mM/min and 0.01329 mM/min
same,initial velocity vo,"[2]; c(mupirocin) 5.0 μM, c(Ile) 5.0 μM",0.00137 mM/min and 0.00102 mM/min and 0.00071 mM/min
same,initial velocity vo,"[2]; c(mupirocin) 5.0 μM, c(Ile) 15.0 μM",0.00213 mM/min and 0.00316 mM/min and 0.00307 mM/min
